According to ChEMBL document CHEMBL1201862, “PubChem BioAssay data set” (2004):
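Step 1: Grow cells in 96-well plates. Step 2: Expose to compound for 48 hours at 5 concentrations. Step 3: Interpolate endpoints linearly; if unreached, use highest concentration. GI50 = concentration required for 50% inhibition of growth.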 Activity calls are given as the source filed them. Rule as the data show it: active = GI50 up to about 1.1 µM and inactive = higher.

Experiments:
Experiment in all cases: growth of human tumour cells (NCI), 48 h
786-0 = test system: 786-0
A498 = test system: A498
ACHN = test system: ACHN
BT-549 = test system: BT-549
CCRF-CEM = test system: CCRF-CEM
COLO 205 = test system: COLO 205
DU-145 = test system: DU-145
EKVX = test system: EKVX
HCC 2998 = test system: HCC 2998
HCT-116 = test system: HCT-116
HCT-15 = test system: HCT-15
HL-60 = test system: HL-60
HOP-62 = test system: HOP-62
HOP-92 = test system: HOP-92
HT-29 = test system: HT-29
Hs-578T = test system: Hs-578T
IGROV-1 = test system: IGROV-1
K562 = test system: K562
LOX IMVI = test system: LOX IMVI
M14 = test system: M14
MCF7 = test system: MCF7
MDA-MB-231 = test system: MDA-MB-231
MDA-MB-435 = test system: MDA-MB-435
MDA-N = test system: MDA-N
Malme-3M = test system: Malme-3M
NCI-H226 = test system: NCI-H226
NCI-H23 = test system: NCI-H23
NCI-H460 = test system: NCI-H460
NCI-H522 = test system: NCI-H522
NCI/ADR-RES = test system: NCI/ADR-RES
OVCAR-3 = test system: OVCAR-3
OVCAR-4 = test system: OVCAR-4
OVCAR-5 = test system: OVCAR-5
OVCAR-8 = test system: OVCAR-8
PC-3 = test system: PC-3
RXF 393 = test system: RXF 393
SF-268 = test system: SF-268
SF-295 = test system: SF-295
SF-539 = test system: SF-539
SK-MEL-28 = test system: SK-MEL-28
SK-MEL-2 = test system: SK-MEL-2
SK-OV-3 = test system: SK-OV-3
SN12C = test system: SN12C
SNB-19 = test system: SNB-19
SNB-75 = test system: SNB-75
SR = test system: SR
SW-620 = test system: SW-620
TK-10 = test system: TK-10
U-251 = test system: U-251
UACC-257 = test system: UACC-257
UACC-62 = test system: UACC-62
UO-31 = test system: UO-31
A549 = test system: A549
CAKI-1 = test system: CAKI-1
KM12 = test system: KM12
MOLT-4 = test system: MOLT-4
RPMI-8226 = test system: RPMI-8226
SK-MEL-5 = test system: SK-MEL-5

## O=C(OC1C#CCSCC#C/C=C\1)c1cnc2ccccc2n1 (stereo unspecified)
786-0
  GI50: 0.461 µM (active)
A498
  GI50: 40 µM (inactive)
ACHN
  GI50: > 100 µM (inactive)
BT-549
  GI50: > 100 µM (inactive)
CCRF-CEM
  GI50: 53.6 µM (inactive)
COLO 205
  GI50: 14.6 µM (inactive)
DU-145
  GI50: > 100 µM (inactive)
EKVX
  GI50: > 100 µM (inactive)
HCC 2998
  GI50: > 100 µM (inactive)
HCT-116
  GI50: > 100 µM (inactive)
HCT-15
  GI50: > 100 µM
HL-60
  GI50: 30.6 µM (inactive)
HOP-62
  GI50: > 100 µM (inactive)
HOP-92
  GI50: > 100 µM (inactive)
HT-29
  GI50: > 100 µM (inactive)
Hs-578T
  GI50: 29.8 µM (inactive)
IGROV-1
  GI50: > 100 µM (inactive)
K562
  GI50: 19.7 µM (inactive)
LOX IMVI
  GI50: > 100 µM (inactive)
M14
  GI50: > 100 µM (inactive)
MCF7
  GI50: > 100 µM (inactive)
MDA-MB-231
  GI50: > 100 µM (inactive)
MDA-MB-435
  GI50: > 100 µM (inactive)
MDA-N
  GI50: > 100 µM (inactive)
Malme-3M
  GI50: > 100 µM (inactive)
NCI-H226
  GI50: 79.4 µM (inactive)
NCI-H23
  GI50: > 100 µM (inactive)
NCI-H460
  GI50: 14.1 µM (inactive)
NCI-H522
  GI50: > 100 µM (inactive)
NCI/ADR-RES
  GI50: 0.805 µM (active)
OVCAR-3
  GI50: > 100 µM (inactive)
OVCAR-4
  GI50: > 100 µM (inactive)
OVCAR-5
  GI50: > 100 µM (inactive)
OVCAR-8
  GI50: 0.409 µM (active)
PC-3
  GI50: > 100 µM (inactive)
RXF 393
  GI50: 79.8 µM (inactive)
SF-268
  GI50: > 100 µM (inactive)
SF-295
  GI50: > 100 µM (inactive)
SF-539
  GI50: > 100 µM (inactive)
SK-MEL-28
  GI50: > 100 µM (inactive)
SK-MEL-2
  GI50: > 100 µM (inactive)
SK-OV-3
  GI50: > 100 µM (inactive)
SN12C
  GI50: > 100 µM (inactive)
SNB-19
  GI50: > 100 µM (inactive)
SNB-75
  GI50: > 100 µM (inactive)
SR
  GI50: 12.2 µM (inactive)
SW-620
  GI50: > 100 µM (inactive)
TK-10
  GI50: > 100 µM (inactive)
U-251
  GI50: > 100 µM (inactive)
UACC-257
  GI50: > 100 µM (inactive)
UACC-62
  GI50: > 100 µM (inactive)
UO-31
  GI50: > 100 µM (inactive)

## Cc1cc(OC(=O)NCn2cc(-c3ccccc3)nn2)ccc1Cl
786-0
  GI50: > 100 µM (inactive)
A549
  GI50: 95.5 µM (inactive)
ACHN
  GI50: > 100 µM (inactive)
BT-549
  GI50: 68.9 µM (inactive)
CAKI-1
  GI50: 83.2 µM (inactive)
CCRF-CEM
  GI50: 72.8 µM (inactive)
COLO 205
  GI50: > 100 µM (inactive)
DU-145
  GI50: 68.7 µM (inactive)
EKVX
  GI50: > 100 µM (inactive)
HCC 2998
  GI50: 16.3 µM (inactive)
HCT-116
  GI50: 85.7 µM (inactive)
HCT-15
  GI50: 97.9 µM
HL-60
  GI50: 44.3 µM (inactive)
HOP-62
  GI50: 69.3 µM (inactive)
HOP-92
  GI50: 67.1 µM (inactive)
HT-29
  GI50: 73.5 µM (inactive)
IGROV-1
  GI50: 37.7 µM (inactive)
K562
  GI50: 76.4 µM (inactive)
KM12
  GI50: > 100 µM (inactive)
LOX IMVI
  GI50: 66.8 µM (inactive)
M14
  GI50: 67.3 µM (inactive)
MCF7
  GI50: > 100 µM (inactive)
MDA-MB-231
  GI50: > 100 µM (inactive)
MOLT-4
  GI50: 28.3 µM (inactive)
Malme-3M
  GI50: 88.1 µM (inactive)
NCI-H226
  GI50: > 100 µM (inactive)
NCI-H23
  GI50: 96.6 µM (inactive)
NCI-H460
  GI50: 67.6 µM (inactive)
NCI-H522
  GI50: 54.2 µM (inactive)
NCI/ADR-RES
  GI50: 83.4 µM (inactive)
OVCAR-4
  GI50: 78.7 µM (inactive)
OVCAR-5
  GI50: > 100 µM (inactive)
OVCAR-8
  GI50: 92.7 µM (inactive)
PC-3
  GI50: > 100 µM (inactive)
RPMI-8226
  GI50: 78.2 µM (inactive)
SF-268
  GI50: 48.4 µM (inactive)
SF-295
  GI50: > 100 µM (inactive)
SF-539
  GI50: 54.2 µM (inactive)
SK-MEL-28
  GI50: > 100 µM (inactive)
SK-MEL-2
  GI50: 48.3 µM (inactive)
SK-MEL-5
  GI50: > 100 µM (inactive)
SN12C
  GI50: > 100 µM (inactive)
SNB-19
  GI50: 91.2 µM (inactive)
SNB-75
  GI50: 29.8 µM (inactive)
SR
  GI50: 83 µM (inactive)
SW-620
  GI50: > 100 µM (inactive)
TK-10
  GI50: > 100 µM (inactive)
U-251
  GI50: > 100 µM (inactive)
UACC-257
  GI50: > 100 µM (inactive)
